The values below come from patent US12409171B2, “Pharmaceutically active pyrazolo-pyridone modulators of DCN1/2-mediated cullin neddylation” (UNIVERSITY OF KENTUCKY RESEARCH FOUNDATION, priority 2019, dated 2025).

For one experiment, the target named is T1, DCN1 (Homo sapiens (Human), UniProt Q96GG9).
T1 sequence (Q96GG9 whole entry): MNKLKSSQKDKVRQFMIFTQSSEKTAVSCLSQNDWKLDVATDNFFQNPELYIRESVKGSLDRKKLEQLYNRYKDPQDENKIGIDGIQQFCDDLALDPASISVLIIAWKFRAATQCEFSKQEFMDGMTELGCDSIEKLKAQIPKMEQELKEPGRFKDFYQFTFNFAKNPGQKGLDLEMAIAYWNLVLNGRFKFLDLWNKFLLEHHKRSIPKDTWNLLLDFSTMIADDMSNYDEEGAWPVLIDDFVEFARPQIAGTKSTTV
Test: not given
To be noted: class symbols H, M, M-L, legend not given; cited from earlier work.
Consider `COc1ccc([C@@H]2c3c(C)nn(C)c3NC(=O)[C@H]2NC(=O)c2cccc(C)c2)cc1F` (racemic) [SJ000398158], for which the “Pulse-Chase inh @ 30 uM” value is on record as “M-L”.

Consider `Cc1nn(C)c2c1[C@@H](c1ccc(F)c(F)c1)[C@H](NC(=O)c1ccc(Cl)cc1)C(=O)N2` (racemic) [SJ000399589], for which the “Pulse-Chase inh @ 30 uM” value is reported as “M-L”.

In the next experiment the target is T1, DCN1. In words: TR-FRET binding assay (biotin-DCN1 / Ac-UBE2M12-AlexaFluor488). To be noted: mean ± SD (n); read-out: DCN1_TRFRET Mean EC50. The method, boiled down:
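Biotinylated DCN1 binding to Ac-UBE2M12-AlexaFluor488 read by TR-FRET; assay cocktail pre-incubated 1 h at room temperature before compounds added from DMSO stocks by pin transfer. IC50 is the mean of three replicates ± SD; compounds tested in triplicate or more.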
Background: In TR-FRET formats the signal depends on donor and acceptor labels being close together.
As usually defined, the EC50 is the concentration at which the effect is half-maximal. Consider `CCN1C(=O)[C@@H](N(CC)C(=O)c2cccc(C)c2)[C@@H](c2ccc(F)cc2)c2c(C)nn(-c3ccccc3)c21` [RG-0009505, N-ethyl-N-[(4S,5S)-7-ethyl-4-(4-fluorophenyl)-3-methyl-6-oxo-1-phenyl-1H,4H,5H,6H,7H-pyrazolo[3,4-b]pyridin-5-yl]-3-methylbenzamide], for which the EC50 came out at 2.62 ± 0.404 µM.

For the molecule `CC(=O)CN1C(=O)[C@@H](NC(=O)c2cccc(C)c2)[C@@H](c2ccc(F)cc2)c2c(C)nn(-c3ccccc3)c21` [RG-0009508, N-[(4S,5S)-4-(4-fluorophenyl)-3-methyl-6-oxo-7-(2-oxopropyl)-1-phenyl-1H,4H,5H,6H,7H-pyrazolo[3,4-b]pyridin-5-yl]-3-methylbenzamide], the EC50 is 7.05 ± 1.67 µM.

Regarding `CCCn1nc(C)c2c1N(CC)C(=O)[C@@H](NC(=O)c1cccc(C)c1)[C@H]2c1ccc(F)cc1` [RG-0008665, N-[(4S,5S)-7-ethyl-4-(4-fluorophenyl)-3-methyl-6-oxo-1-propyl-1H,4H,5H,6H,7H-pyrazolo[3,4-b]pyridin-5-yl]-3-methylbenzamide], the EC50 was 0.244 ± 0.0208 µM.

Turning to `CCN1C(=O)[C@@H](NC(=O)c2cccc(C(F)(F)F)c2)[C@@H](c2ccc(F)cc2)c2c(CN3CCNCC3)nn(-c3ccccc3)c21` [RG-0014141, N-[(4S,5S)-7-ethyl-4-(4-fluorophenyl)-6-oxo-1-phenyl-3-[(piperazin-1-yl)methyl]-1H,4H,5H,6H,7H-pyrazolo[3,4-b]pyridin-5-yl]-3-(trifluoromethyl)benzamide], the EC50 stood at 0.141 ± 0.00756 µM.

Take `CCN1C(=O)[C@@H](NC(=O)c2cccc(C)c2)[C@@H](C(C)C)c2c(C)nn(-c3ccccc3)c21` [RG-0008876, N-[(4S,5S)-7-ethyl-3-methyl-6-oxo-1-phenyl-4-(propan-2-yl)-1H,4H,5H,6H,7H-pyrazolo[3,4-b]pyridin-5-yl]-3-methylbenzamide]: the EC50 was 1.75 ± 0.165 µM.

As for `CCN1C(=O)[C@@H](NC(=O)c2cccc(C(F)(F)F)n2)[C@@H](c2ccc(F)cc2)c2c(C)nn(-c3ccccc3)c21` [RG-0014061, N-[(4S,5S)-7-ethyl-4-(4-fluorophenyl)-3-methyl-6-oxo-1-phenyl-1H,4H,5H,6H,7H-pyrazolo[3,4-b]pyridin-5-yl]-6-(trifluoromethyl)pyridine-2-carboxamide], the EC50 stood at 1.11 ± 0.13 µM.

For `Cc1cccc(C(=O)N[C@@H]2C(=O)N(C(C)C)c3c(c(C)nn3-c3ccccc3)[C@@H]2c2ccc(F)cc2)c1` [RG-0008670, N-[(4S,5S)-4-(4-fluorophenyl)-3-methyl-6-oxo-1-phenyl-7-(propan-2-yl)-1H,4H,5H,6H,7H-pyrazolo[3,4-b]pyridin-5-yl]-3-methylbenzamide], the EC50 came out at 4.14 ± 0.765 µM.

For the molecule `Cc1nn(-c2ccccc2)c2c1[C@H](c1ccc(F)cc1)[C@H](NC(=O)c1cccc(C(F)(F)F)c1)C(=O)N2C` [RG-0008885, N-[(4S,5S)-4-(4-fluorophenyl)-3,7-dimethyl-6-oxo-1-phenyl-1H,4H,5H,6H,7H-pyrazolo[3,4-b]pyridin-5-yl]-3-(trifluoromethyl)benzamide], the EC50 amounted to 0.943 ± 0.0863 µM.

Regarding `Cc1cccc(C(=O)N[C@@H]2C(=O)N(C)c3c(c(C)nn3-c3ccccc3)[C@@H]2c2ccc(F)cc2)c1` [RG-0005655, N-[(4S,5S)-4-(4-fluorophenyl)-3,7-dimethyl-6-oxo-1-phenyl-1H,4H,5H,6H,7H-pyrazolo[3,4-b]pyridin-5-yl]-3-methylbenzamide], the 50% effective concentration (EC50) is 0.446 ± 0.0681 µM.

For the molecule `CCN1C(=O)[C@@H](NC(=O)c2cccc(C(F)(F)F)c2)[C@@H](c2ccc(F)cc2)c2c(CNC(=O)CC(C)C)nn(-c3ccccc3)c21` [RG-0014052, N-[(4S,5S)-7-ethyl-4-(4-fluorophenyl)-3-[(3-methylbutanamido)methyl]-6-oxo-1-phenyl-1H,4H,5H,6H,7H-pyrazolo[3,4-b]pyridin-5-yl]-3-(trifluoromethyl)benzamide], the EC50 was 0.114 ± 0.00867 µM.
